The values that follow come from patent US20180368393A1, “PRE- AND POST-STORAGE STRESS RESPONSE CONDITIONING” (CPSI HOLDINGS LLC, priority 2017, published 2018).

For test [1], the system named is human smooth muscle cells. Description: Human smooth muscle cell monolayer survival and repopulation following cryopreservation (Calcein-AM assay). The test is classed as cell-based. On the procedure: (§1) The device was used to thaw the samples, which were frozen in situ in monolayers in standard 96-well tissue culture plates. Samples were thawed from less than −170° C. to about 4° C. in the 96-well plate format in about 5 mins in a dry clean (“sterile”) environment.
The study described in example 3.1 focuses on the collection of cell survival data and the impact of post-thaw conditioning on human smooth muscle cells (SMCs). Specific activities included application of the high throughput monolayer sample cryopreservation protocol and collection of data (survival and cell death) from samples frozen using 6 unique cryopreservation solutions (U5, U10, U20, U5G10, U10G10, DP6) and 6 unique modulators (resveratrol, salubrinal, caspase inhibitors (IV, 8, 9) and NAC). Survival was determined at 24 hours post-thaw to allow for the manifestation of any delayed onset cell death pathways to be executed. Further, cell recovery was included to evaluate the long term potency and repopulation potential of the various samples.
A series of experiments was conducted to evaluate the performance of several solutions (U5, U10, U20, U5G10, U10G10 and DP6) as well as the impact of pre-freeze (PF) and post-warming (PW) conditioning with the apoptotic inhibitors Caspase 8, Caspase 9 and Caspase IV inhibitors. Cell samples were processed using the monolayer CP protocol and analyzed following 24 hours to 7 days post thaw for survival and recovery. These experiments were conducted to evaluate the impact of molecular modulators (inhibitors) during pre-freeze or post-thaw recovery on cell survival when added to the media 1 hour prior to or 24 hour following cryopreservation. […] To this end, samples were probed with Calcein-AM, incubated for 30 mins in the dark and then imaged using a Zeiss Axiovert 200 fluorescence microscope and Axiovision software. Images were taken at 24 hours to 7 days post-thaw to allow for assessment of solution and post-thaw conditioning agent performance.
As in previous experiments, the 24 hour time point was used for initial survival assessment, as this time point allows for the manifestation of molecular based cell stress-induced death. This provides a more accurate measure of survival than 0 or 1 hour post-thaw assessment, as is typically used. The 3 day time point was selected to assess re-population potential of any surviving cells as an indicator of long term potency.
For smooth muscle cell pre-freeze (PF) conditioning studies, 1 hour prior to CP addition, culture media was decanted and 100 μL of fresh media supplemented with caspase 8, 9, or IV was added to each respective well. Samples were then incubated at 37° C. for 1 hour, followed by media removal and addition of 100 μL of CP solution to samples followed by cryopreservation as described above. Following preservation, samples were thawed, diluted, and placed into culture. Following 24 hours recovery, cell viability was assessed.
For smooth muscle cell post-warming (PW) conditioning studies, following thawing and cryopreservation, CP solution was removed or diluted with culture media supplemented with caspase 8, 9, or IV. FIG. 18 illustrates the impact of apoptotic inhibition post-freeze conditioning on human smooth muscle cell survival 1 day following cryopreservation with and without reduced CPA.
For P/P conditioning studies, 1 hour prior to CP addition, culture media was decanted and 100 μL of fresh media supplement with caspase 8, 9, or IV was added to each respective well.

Test [2] has as its system endothelial and smooth muscle cells. Nature of the test: Summary of Examples 2-3: post-thaw survival of endothelial and smooth muscle cells (Calcein-AM assay). The test is classed as cell-based, human. On the procedure:
For pre-freeze (PF), post-warming (PW) and pre/post (P/P) conditioning studies, molecular modulation agents targeting inhibition of apoptosis (Caspase inhibitor IV, 8, 9 and a combination of Caspases 8 and 9), reduction of free-radical damage (resveratrol and NAC), and activation of the unfolded protein response (salubrinal) were employed as supplements in the media 1 hour prior to freezing (pre-freeze condition) or for 1 day following thawing and CPA removal from frozen samples (post-warming condition).
as §1
The P/P regime was followed by PW using Caspase 8 inhibition or NAC inhibition.

As to `CC(=O)N[C@@H](CS)C(=O)O` [NAC, n-acetyl cysteine], the “repopulation / recovery at 3 days post-thaw” value in test [1] (P/P conditioning with oxidative stress modulators) is “day 3 recovery reached a monolayer similar to non-treated controls”. The “day 1 cell survival” value is recorded as “slight to no improvement in cell survival” in test [1] (P/P conditioning, vs non-conditioned samples) and “improvement in cell survival” in test [1] (PW conditioning, vs non-treated matched samples). Moreover, the “post-thaw cell survival or recovery (overall)” value in test [1] (PW conditioning in combination with the other solutions) was “Broader solution benefit”. In addition, the “cell recovery / repopulation, day 3” value in test [1] (PW conditioning with oxidative stress modulators) is recorded as “improved cell recovery”. In addition, the “day 1 post-thaw cell survival and cell recovery” value in test [2] (PF, PW and P/P conditioning, Unisol based solutions) is given as “Improvements in survival”. Moreover, the “increase in cell survival over non-treated samples” value in test [2] (PW conditioning) is about 50%.
